The text below walks through data of PubChem BioAssay (NCI).

Holding throughout (assay): NCI anticancer screen, dose series, 48 h
Experiment [1] concerns 786-0 renal.
Experiment [2] deals with DU-145 prostate.
In experiment [3] the test system is MDA-MB-231 breast.
Experiment [4] deals with MOLT-4 leukemia.
The test system of experiment [5] is NCI-H460 lung.
Experiment [6] has as its system NCI/ADR-RES ovarian.
In experiment [7] the test system is OVCAR-8 ovarian.
Experiment [8] concerns PC-3 prostate.
Experiment [9] has as its system SF-268 CNS.
Experiment [10] relates to UACC-62 melanoma.

Each structure is given as a SMILES string. Where “and” joins values, the source holds several entries; their conditions need not be identical. Identical values can stand only once.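 These data come from cells grown in 96-well plates and exposed to compound for 48 hours at five concentrations. GI50 = concentration required for 50% inhibition of growth. At the TGI there is no net growth.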

On to `N#Cc1ccc(C(=O)c2cnn(-c3ccc(F)cc3)c2N)cc1`, for which the GI50 was greater than 25 µM in experiment [1]; greater than 25 µM in [2]; greater than 23.3 µM in experiment [3]; greater than 25 µM in experiment [4]; greater than 25 µM in experiment [5]; greater than 25 µM in experiment [6]. Moreover, the GI50 in experiment [7], in experiment [8], in [9] and in [10] was greater than 25 µM throughout. In addition, the TGI in [1], in experiment [2], in experiment [3], in experiment [4], in experiment [5] and in experiment [6] was greater than 25 µM throughout. For the same molecule, the TGI in [7], in experiment [8], in [9] and in [10] was greater than 25 µM throughout.

As for `CN(C)c1ccc2cc3c(cc2c1)Oc1ccccc1N3.[Cl][Zn][Cl]`, the GI50 in experiment [1] is 2.85 µM; in experiment [2], 8.24 µM; in experiment [3] it was 1.83 µM; in experiment [4], 3.1 µM; in experiment [5] it was 20.1 µM; in experiment [6], 16.8 µM. In addition, the GI50 in experiment [7] is 5.64 µM; in [8] it was 3.54 µM; in experiment [9], 13.6 µM; in [10], 3.43 µM. The TGI in experiment [1] was determined as 9.48 µM; in [2], 20.9 µM; in experiment [3] it was 4.51 µM; in experiment [4], 16.2 µM; in experiment [5], 52.2 µM; in [6], 83.3 µM. For the same molecule, the TGI was greater than 100 µM in [7], 14.1 µM in experiment [8], 27.2 µM in experiment [9] and 13.4 µM in experiment [10].

As for `CN(C)c1ccc(/C=N/n2c(CCCCc3n[nH]c(=S)n3/N=C/c3ccc(N(C)C)cc3)n[nH]c2=S)cc1`, the GI50 was 89.3 µM in experiment [1]; greater than 100 µM in experiment [2]; 41.3 µM in [3]; greater than 100 µM in [4]; greater than 100 µM in experiment [5]; greater than 100 µM in experiment [6]. Further, the GI50 in [7], in [8], in experiment [9] and in experiment [10] was greater than 100 µM throughout. Moreover, the TGI in experiment [1], in [2], in experiment [3], in experiment [4], in experiment [5] and in experiment [6] was greater than 100 µM in each case. In addition, the TGI in experiment [7], in [8], in [9] and in experiment [10] was greater than 100 µM each time.

On to `COc1ccc(Cl)cc1Nc1nc(C(F)(F)F)ccc1C(=O)N/N=C/c1ccccc1Cl`, for which the GI50 in experiment [1] is 4.66 µM; in [2] it was 3.94 µM; in experiment [3], 2.09 µM; in [4], 1.88 µM; in experiment [5] it was 1.13 µM; in experiment [6], 2.83 µM. For the same molecule, the GI50 in [7] was 2.4 µM; in [8], 2.84 µM; in [9], 2.22 µM; in [10] it was 1.93 µM. Also, the TGI in [1] is greater than 23 µM; in experiment [2], greater than 25.6 µM; in [3], 10.9 µM; in [5], 4.53 µM; in experiment [6], greater than 28.4 µM; in experiment [7], greater than 31 µM. Further, the TGI was greater than 100 µM in [8], greater than 23.2 µM in [9] and 9.83 µM in [10].

Take `COc1ccc(-c2nsc3c2NC(=O)CC3c2cccc(F)c2)cc1` (configuration not stated): the GI50 in experiment [1] is 8.22 µM; in experiment [2] it was 5.29 µM; in experiment [3], 6.34 µM; in experiment [4], 5 µM; in experiment [5], 3.63 µM; in experiment [6], 2.96 µM. For the same molecule, the GI50 in experiment [7] is 7.54 µM; in experiment [8] it was 4.93 µM; in experiment [9] it was 6.86 µM; in experiment [10], 4.35 µM. Further, the TGI was greater than 100 µM in experiment [1]; greater than 100 µM in experiment [2]; greater than 100 µM in experiment [3]; greater than 100 µM in experiment [4]; greater than 100 µM in experiment [5]; 16.7 µM in experiment [6]. The TGI in experiment [7], in experiment [8], in [9] and in [10] was greater than 100 µM each time.

Consider `CN(CO)c1nc(N(C)CO)nc(N(C)CO)n1`, for which the GI50 in experiment [1] was 29.6 µM; in experiment [2], 29 µM; in [3], 18.3 µM; in experiment [4] it was 23.5 µM; in experiment [5], 17.2 µM and 13.9 µM; in experiment [6], 21.7 µM and 20.7 µM. Moreover, the GI50 was 23.6 µM in [7]; 26.2 µM and 18.5 µM in experiment [9]; 17.2 µM in experiment [10]. Besides, the TGI in experiment [1] is 56.9 µM and 105 µM; in experiment [2], 64.8 µM and 76.5 µM; in [3] it was 42.9 µM and 46.9 µM; in experiment [4] it was 77 µM and 128 µM; in [5], 43.6 µM and 42.8 µM; in [6], 54.6 µM and 57.4 µM. In addition, the TGI in experiment [7] was 55.6 µM and 38.4 µM; in experiment [8] it was 45.6 µM and 51.3 µM; in experiment [9] it was 64.1 µM and 70.2 µM; in experiment [10], 33.8 µM and 25.4 µM.

On to `COc1ccccc1/C=C1\CCC(CN2CCOCC2)C1=O` (configuration not stated), for which the TGI in experiment [1] was determined as 8.53 µM; in [2], 31.4 µM; in experiment [3], 11.5 µM; in experiment [4], 14.2 µM; in [5], 36 µM; in experiment [6], 35.8 µM. Further, the TGI amounted to 16.9 µM in experiment [7], 30 µM in experiment [8], 41.7 µM in experiment [9] and 30.3 µM in [10].

On to `O=C(Nc1cccc(-n2ccc3c(NC(=O)c4ccccc4)nccc32)c1)c1ccc(Cl)c(Cl)c1`, for which the GI50 was 0.242 µM in experiment [1]; 0.22 µM in experiment [2]; 0.302 µM in experiment [3]; 0.634 µM in experiment [4]; 0.158 µM in experiment [5]; 0.0865 µM in experiment [6]. In addition, the GI50 was 0.274 µM in experiment [7], 0.0965 µM in [8], 0.19 µM in experiment [9] and 0.0535 µM in [10]. Besides, the TGI in experiment [1] came to 1.59 µM; in experiment [2], 0.855 µM; in [3], 1.34 µM; in [5], 1.08 µM; in experiment [6], 0.38 µM; in experiment [7], 1.86 µM. Further, the TGI in [8] turned out to be 1.52 µM; in experiment [9], 2.18 µM; in [10], 1.63 µM.
